The text below walks through data of patent EP4782433A1, “METHOD FOR PRODUCING ARYLAMIDE DERIVATIVE” (CHUGAI SEIYAKU KABUSHIKI KAISHA, priority 2023, dated 2025).

The structures appear in SMILES notation.

A short description of one series: physchem. As to conditions: 25 °C, organic solvent or mixture, thermodynamic from solid.
For series [1] the following is noted: in water at 25°C; cited from earlier work.
Series [2] in a line: Solubility of the additive or its sodium salt in a mixed solvent of tetrahydrofuran, acetone, tert-butyl methyl ether and water (supernatant analysed by HPLC). The conditions noted are these: 25 °C, organic solvent or mixture, thermodynamic from solid.

One may read the solubility as how much of the substance goes into solution per volume. As usually defined, the pKa is the pH at which an ionisable group is half protonated.

Take `CC(=O)Nc1ccc(O)cc1` [Acetaminophen]: the solubility in “physchem” (Solubility of additive) is at least 70 mM; in “physchem” (Solubility of sodium salt of additive), 40 mM. Besides, the pKa in series [1] is recorded as 9.78.

Turning to `Cc1cccc(O)c1` [m-Cresol], the solubility in series [2] is at least 50 mM; in series [2] (Solubility of additive, 25°C, tetrahydrofuran:acetone:tert-butyl methyl ether 8:10:5 by volume, water 3% by mass, stirred for 6 hours or longer) it was at least 50 mM.
